From patent publication US20240245770A1, “COMPOSITIONS AND METHODS FOR TREATING NEUROMUSCULAR DISORDERS” (The Regents of the University of California, priority 2019, published 2024)

System: serum cytokine/chemokine/growth factor/ligands of ALS patient
Experiment: Serum Luminex, before and after NAC treatment
Type: in vivo, human
Description: (§1) Serum Luminex. Serum from patients were used to determine the levels of cytokine/chemokine/growth factor/ligands secretion using multiplex luminex assay. Scatter plot was prepared using the levels of cytokine/chemokine/growth factor/ligands in serum obtained at different dates from patients as compared to controls.
Serum Luminex. Serum from patients were used to determine the levels of cytokine/chemokine/growth factor/ligands secretion using multiplex luminex assay.
as §1

[1] = H110 RS post NAC (second line, continues Table 138A)
[2] = JC sera Apr. 5, 2020 (NAC infusion)
[3] = JC sera Apr. 16, 2020 (NAC infusion)
[4] = JC sera Apr. 23, 2020 (NAC infusion)

In the case of CC(=O)N[C@@H](CS)C(=O)O [NAC, N-Acetyl-Cysteine], the “IFN-g, ALS patient compared to healthy twin” value (41 plex after NAC) is reported as 1.6, the “IL-2, ALS patient compared to healthy twin” value (41 plex after NAC) is reported as 0.9 and the “IL-4, ALS patient compared to healthy twin” value (41 plex after NAC) is reported as 1.1. For the same compound, the “IL-10, ALS patient compared to healthy twin” value (41 plex after NAC) was 0.95, the “IL-12 p70, ALS patient compared to healthy twin” value (41 plex after NAC) was 1.3 and the “IL-13, ALS patient compared to healthy twin” value (41 plex after NAC) was 0.99. For the same compound, the “TNF-a, ALS patient compared to healthy twin” value (41 plex after NAC) was 2.2, the Franktalkine (After NAC, Ave JC 4/5 to 6/24) was 34.8 and the GM-CSF (After NAC, Ave JC 4/5 to 6/24) was 68.8. For the same compound, the IL-4 (After NAC, Ave JC 4/5 to 6/24) was 12.8, the IL-23 (After NAC, Ave JC 4/5 to 6/24) was 125.6 and the ITAC (After NAC, Ave JC 4/5 to 6/24) was 13.34. The MIP-1b (After NAC, Ave JC 4/5 to 6/24) was 21.6, the IFNg (Ave JC 4/5 to 6/24) was 7.25 and the IL-1b (Ave JC 4/5 to 6/24) was 0.82. It also gave an IL-2 (Ave JC 4/5 to 6/24) of 1.45, an IL-6 (Ave JC 4/5 to 6/24) of 1.9 and an IL-7 (Ave JC 4/5 to 6/24) of 5.7. It also gave an IL-8 (Ave JC 4/5 to 6/24) of 4.4, an IL-10 (Ave JC 4/5 to 6/24) of 7.8 and an IL-12p70 (Ave JC 4/5 to 6/24) of 2. For the same compound, the IL-13 (Ave JC 4/5 to 6/24) was 4.32, the IL-17A (Ave JC 4/5 to 6/24) was 4 and the IL-21 (Ave JC 4/5 to 6/24) was 0.7. It also gave an MIP-1a (Ave JC 4/5 to 6/24) of 11.5, an MIP-3a (Ave JC 4/5 to 6/24) of 8.1 and a TNFa (Ave JC 4/5 to 6/24) of 8.2 pg/mL. For the same compound, the Franktalkine (Ave JC sera for NAC infusion) was 34.8 pg/mL, the GM-CSF (Ave JC sera for NAC infusion) was 68.8 pg/mL and the IFNg (Ave JC sera for NAC infusion) was 7.25 pg/mL. For the same compound, the IL-1b (Ave JC sera for NAC infusion) was 0.82 pg/mL, the IL-2 (Ave JC sera for NAC infusion) was 1.45 pg/mL and the IL-4 (Ave JC sera for NAC infusion) was 12.8 pg/mL. It also gave an IL-6 (Ave JC sera for NAC infusion) of 1.9 pg/mL, an IL-7 (Ave JC sera for NAC infusion) of 5.7 pg/mL and an IL-8 (Ave JC sera for NAC infusion) of 4.4 pg/mL. It also gave an IL-10 (Ave JC sera for NAC infusion) of 7.8 pg/mL, an IL-12p70 (Ave JC sera for NAC infusion) of 2 pg/mL and an IL-13 (Ave JC sera for NAC infusion) of 4.32 pg/mL. For the same compound, the IL-17A (Ave JC sera for NAC infusion) was 4 pg/mL, the IL-21 (Ave JC sera for NAC infusion) was 0.7 pg/mL and the IL-23 (Ave JC sera for NAC infusion) was 125.6 pg/mL. For the same compound, the ITAC (Ave JC sera for NAC infusion) was 13.34 pg/mL, the MIP-1a (Ave JC sera for NAC infusion) was 11.5 pg/mL and the MIP-1b (Ave JC sera for NAC infusion) was 21.6 pg/mL. For the same compound, the MIP-3a (Ave JC sera for NAC infusion) was 8.1 pg/mL, the TNFa (Ave JC sera for NAC infusion) was 8.2 pg/mL and the CMD [1] was 1391 pg/mL. For the same compound, the GRO [1] was 2246 pg/mL, the IFNg [1] was 20.14 pg/mL and the IL-1Ra [1] was 247.51 pg/mL. The IL-1a [1] was 43.39 pg/mL, the IL-1b [1] was 6.64 pg/mL and the IL-3 [1] was 7.88 pg/mL. The IL-4 [1] was 53.81 pg/mL, the IL-5 [1] was 38.12 pg/mL and the IL-6 [1] was 23.49 pg/mL. The IL-7 [1] was 21.7 pg/mL, the IL-8 [1] was 16.64 pg/mL and the IL-9 [1] was 16.88 pg/mL. The IL-10 [1] was 97.95 pg/mL, the IL-12p40 [1] was 82.26 pg/mL and the IL-12p70 [1] was 13.65 pg/mL. For the same compound, the IL-13 [1] was 33.66 pg/mL, the IL-15 [1] was 23.97 pg/mL and the IL-17a [1] was 12.34 pg/mL. It also gave an IP-10 [1] of 646.43 pg/mL, a L-2 [1] of 14.54 pg/mL and an MCP1 [1] of 846.7 pg/mL. It also gave an MCP3 [1] of 16.88 pg/mL, an MIP1a [1] of 17.37 pg/mL and an MIP1b [1] of 34.07 pg/mL. For the same compound, the PDGF-AB/BB [1] was 23823 pg/mL, the PDGFaa [1] was 8654 pg/mL and the Rantes [1] was 9480 pg/mL. It also gave a TNFa [1] of 30.58 pg/mL, a TNFb [1] of 6.89 pg/mL and a VEGF [1] of 247.51 pg/mL. The sCD40L [1] was 3545 pg/mL, the EGF (H110 RS post NAC, Aug. 8, 2019) was 21.91 pg/mL and the Eotaxin (H110 RS post NAC, Aug. 8, 2019) was 116.77 pg/mL. It also gave an FGF2 (H110 RS post NAC, Aug. 8, 2019) of 44.55 pg/mL, an FIT3L (H110 RS post NAC, Aug. 8, 2019) of 15.11 pg/mL and a Fractalkine (H110 RS post NAC, Aug. 8, 2019) of 61.83 pg/mL. It also gave a GCSF (H110 RS post NAC, Aug. 8, 2019) of 6131 pg/mL, a GMCSF (H110 RS post NAC, Aug. 8, 2019) of 26.68 pg/mL and an IFNa2 (H110 RS post NAC, Aug. 8, 2019) of 31.31 pg/mL. The TGFa (H110 RS post NAC, Aug. 8, 2019) was 22.12 pg/mL, the IL-2 (JC sera Apr. 5, 2020) was 0.14 pg/mL and the IL-4 (JC sera Apr. 5, 2020) was 18.46 pg/mL. For the same compound, the IL-5 (JC sera Apr. 5, 2020) was 2.64 pg/mL, the IL-6 (JC sera Apr. 5, 2020) was 2.74 pg/mL and the IL-7 (JC sera Apr. 5, 2020) was 5.61 pg/mL. The IL-8 (JC sera Apr. 5, 2020) was 5.32 pg/mL, the IL-21 (JC sera Apr. 5, 2020) was 0.82 pg/mL and the IL-23 (JC sera Apr. 5, 2020) was 144.83 pg/mL. It also gave an MIP-1a (JC sera Apr. 5, 2020) of 11.35 pg/mL, an MIP-1b (JC sera Apr. 5, 2020) of 24.47 pg/mL and a TNFa (JC sera Apr. 5, 2020) of 9.39 pg/mL. It also gave a Franktalkine [2] of 39.54 pg/mL, a GM-CSF [2] of 91.74 pg/mL and an IFNg [2] of 11.6 pg/mL. It also gave an IL-1b [2] of 0.87 pg/mL, an IL-10 [2] of 8.12 pg/mL and an IL-12p70 [2] of 2.32 pg/mL. It also gave an IL-13 [2] of 4.83 pg/mL, an IL-17A [2] of 6.07 pg/mL and an ITAC [2] of 18.73 pg/mL. For the same compound, the MIP-3a [2] was 11.35 pg/mL, the IL-2 (JC sera Apr. 16, 2020) was 0.32 pg/mL and the IL-4 (JC sera Apr. 16, 2020) was 11.22 pg/mL. For the same compound, the IL-5 (JC sera Apr. 16, 2020) was 2.21 pg/mL, the IL-7 (JC sera Apr. 16, 2020) was 4.9 pg/mL and the IL-8 (JC sera Apr. 16, 2020) was 3.55 pg/mL. The IL-21 (JC sera Apr. 16, 2020) was 0.62 pg/mL, the IL-23 (JC sera Apr. 16, 2020) was 116.26 pg/mL and the MIP-1a (JC sera Apr. 16, 2020) was 10.8 pg/mL. For the same compound, the MIP-1b (JC sera Apr. 16, 2020) was 18.56 pg/mL, the TNFa (JC sera Apr. 16, 2020) was 7.45 pg/mL and the Franktalkine [3] was 33.33 pg/mL. For the same compound, the GM-CSF [3] was 54.8 pg/mL, the IFNg [3] was 7.11 pg/mL and the IL-1b [3] was 0.65 pg/mL. It also gave an IL-10 [3] of 4.47 pg/mL, an IL-12p70 [3] of 2.1 pg/mL and an IL-13 [3] of 4.44 pg/mL. The IL-17A [3] was 3.15 pg/mL, the ITAC [3] was 11.26 pg/mL and the MIP-3a [3] was 5.58 pg/mL. The IL-2 (JC sera Apr. 23, 2020) was 5.42 pg/mL, the IL-4 (JC sera Apr. 23, 2020) was 15.94 pg/mL and the IL-5 (JC sera Apr. 23, 2020) was 2.21 pg/mL. For the same compound, the IL-7 (JC sera Apr. 23, 2020) was 6.39 pg/mL, the IL-8 (JC sera Apr. 23, 2020) was 3.72 pg/mL and the IL-21 (JC sera Apr. 23, 2020) was 0.68 pg/mL. For the same compound, the IL-23 (JC sera Apr. 23, 2020) was 132.6 pg/mL, the MIP-1a (JC sera Apr. 23, 2020) was 11.24 pg/mL and the MIP-1b (JC sera Apr. 23, 2020) was 16.32 pg/mL. It also gave a TNFa (JC sera Apr. 23, 2020) of 7.45 pg/mL, a Franktalkine [4] of 34.75 pg/mL and a GM-CSF [4] of 84.17 pg/mL. The IFNg [4] was 6.15 pg/mL, the IL-1b [4] was 0.77 pg/mL and the IL-10 [4] was 6 pg/mL. For the same compound, the IL-12p70 [4] was 2 pg/mL, the IL-13 [4] was 4.17 pg/mL and the IL-17A [4] was 2.78 pg/mL. For the same compound, the ITAC [4] was 10.71 pg/mL, the MIP-3a [4] was 6.78 pg/mL and the IL-2 (JC sera Apr. 30, 2020) was 0.06 pg/mL. The IL-4 (JC sera Apr. 30, 2020) was 14.43 pg/mL.
